This is an account of results in paper PMC12175220, “Eco-Friendly Solvents for Bioactives: Solubilization of Hydroxycinnamic Acids in Glycerol-Derived Ethers” (ACS Sustainable Chemistry & Engineering, 2025).

Converted amounts (≈) assume the structure as drawn.

A short description of series [1]: Solubility of hydroxycinnamic acids in pure solvents (orbital shaker 72 h, HPLC). Type of series: physicochemical. The conditions noted are these: for Increase of solubility in EGMME with respect to 101: EGMME vs 101; for solubility at 72 h: organic solvent or mixture, thermodynamic from solid. The protocol:
(§1) Amber vials were used to protect the samples from light. To ensure reliability, all of the experiments were performed in triplicate. The samples were shaken in a biological orbital shaker at 100 rpm for 72 h at 25 °C.
Before the samples were measured, they must be sonicated to avoid the formation of dimers and ensure the uniformity of the peaks.
(§2) The column used for the quantification was a C18 Phenomenex Luna ([…] × 5 μm).
Calibration curves were generated using solutions varying in the concentrations of the three studied acids within the HPLC detection range (0–0.006 mg). These solutions were sonicated to ensure uniformity of the peaks and then injected into the HPLC. The linearity of the curves was evaluated by linear regression analysis. Details of the calibrations are gathered in the Supporting Information (Figures S27–S29).
Following this period, the solution was checked for saturation and filtered. The filtered solution was then immediately diluted for hydroxycinnamic acid quantification by HPLC.

The nature of a further series: physchem. The conditions noted are these: for solubility at 72 h: 25 °C, thermodynamic from solid, Solubility (mg/mL). The protocol:
as §1, §2

The conditions of series [2]: comparison solvents; cited from earlier work.
Setting [3] is: pure 1,3-propylene glycol (PG), 25 °C, solvent PG (1,3-propylene glycol), 298 K, read-out: Solubility.
The mark [4] stands for this setting: pure ethylene glycol (EG), 25 °C, solvent EG (ethylene glycol), 298 K, read-out: Solubility.
[5] abbreviates: pure solvent 3F00, 25 °C, solvent 3F00, Tables S-1 to S-3, read-out: Solubility.
Where [6] appears, read: pure solvent 3i00, 25 °C, solvent 3i00, Tables S-1 to S-3, read-out: Solubility.
Setting [7] is: pure solvent 3i03i, 25 °C, solvent 3i03i, 298 K, read-out: Solubility.
The mark [8] stands for this setting: pure solvent 100, 25 °C, solvent 100, Tables S-1 to S-3, read-out: Solubility.
Where [9] appears, read: pure solvent 101, 25 °C, solvent 101, Tables S-1 to S-3, read-out: Solubility.
Where [10] appears, read: pure solvent 111, 25 °C, solvent 111, Tables S-1 to S-3, read-out: Solubility.
Setting [11] is: pure solvent 111 triether, 25 °C, solvent 111 triether, 298 K, read-out: Solubility.
The mark [12] stands for this setting: pure solvent 200, 25 °C, solvent 200, Tables S-1 to S-3, read-out: Solubility.
The mark [13] stands for this setting: pure solvent 202, 25 °C, solvent 202, 298 K, read-out: Solubility.
[14] abbreviates: pure solvent 202, 25 °C, solvent 202, Tables S-1 to S-3, read-out: Solubility.
Where [15] appears, read: pure solvent 300, 25 °C, solvent 300, Tables S-1 to S-3, read-out: Solubility.
Where [16] appears, read: pure solvent 400, 25 °C, solvent 400, Tables S-1 to S-3, read-out: Solubility.
[17] abbreviates: pure solvent 400, 25 °C, solvent 400, Tables S-13 to S-15, read-out: Experimental solubility.
The mark [18] stands for this setting: pure solvent 404, 25 °C, solvent 404, Tables S-1 to S-3, read-out: Solubility.
Where [19] appears, read: pure solvent EG, 25 °C, solvent EG, Tables S-1 to S-3, read-out: Solubility.
[20] abbreviates: pure solvent EGDME, 25 °C, solvent EGDME, Tables S-1 to S-3, read-out: Solubility.
Where [21] appears, read: pure solvent EGMME, 25 °C, solvent EGMME, Tables S-1 to S-3, read-out: Solubility.
[22] abbreviates: pure solvent PG, 25 °C, solvent PG, Tables S-1 to S-3, read-out: Solubility.

A word on the solubility: it is the dissolved amount per volume that the medium holds. Usually Solubility stands for how much of the substance goes into solution per volume. Read a high Solubility as much dissolved substance. On to `O=C(O)/C=C/c1ccc(O)cc1` [Coumaric acid, coumaric acid], for which, in series [1], the “Increase of solubility in EGMME with respect to 101” value is recorded as 45%. For the same molecule, the solubility at 72 h in series [1] (setting [3]) amounted to 91.3 mg/mL (≈ 556 mM); in series [1] (setting [4]), 103 mg/mL (≈ 627 mM); in series [1] (pure solvent 3F00, 25 °C, solvent 3F00, 298 K, read-out: Solubility), 19.6 mg/mL (≈ 119 mM); in series [1] (setting [5]), 17.2 mg/mL (≈ 105 mM); in series [1] (pure solvent 3F03F, 25 °C, solvent 3F03F, 298 K, read-out: Solubility), 2 mg/mL (≈ 12.2 mM); in series [1] (pure solvent 3F03F, 25 °C, solvent 3F03F, Tables S-1 to S-3, read-out: Solubility) it was 2.7 mg/mL (≈ 16.4 mM). Further, the solubility at 72 h in series [1] (setting [6]) amounted to 112 mg/mL (≈ 685 mM); in series [1] (setting [7]) it was 85.7 mg/mL (≈ 522 mM); in series [1] (setting [8]), 141 mg/mL (≈ 861 mM); in series [1] (pure solvent 100, 25 °C, solvent 100, Tables S-13 to S-15, read-out: Experimental solubility) it was 142 mg/mL (≈ 863 mM); in series [1] (pure solvent 101, 25 °C, solvent 101, 298 K, read-out: Solubility), 176 mg/mL (≈ 1070 mM); in series [1] (setting [9]), 176 mg/mL (≈ 1070 mM). For the same molecule, the solubility at 72 h in series [1] (pure solvent 101, 25 °C, solvent 101, Tables S-13 to S-15, read-out: Experimental solubility) turned out to be 177 mg/mL (≈ 1080 mM); in series [1] (setting [10]), 110 mg/mL (≈ 668 mM); in series [1] (setting [11]), 109 mg/mL (≈ 664 mM); in series [1] (setting [12]), 137 mg/mL (≈ 832 mM); in series [1] (setting [13]), 122 mg/mL (≈ 743 mM); in series [1] (setting [14]), 120 mg/mL (≈ 731 mM). The solubility at 72 h in series [1] (setting [15]) amounted to 113 mg/mL (≈ 687 mM); in series [1] (pure solvent 303, 25 °C, solvent 303, 298 K, read-out: Solubility), 74.6 mg/mL (≈ 454 mM); in series [1] (setting [16]), 95.1 mg/mL (≈ 579 mM); in series [1] (setting [17]), 93.1 mg/mL (≈ 567 mM); in series [1] (setting [18]) it was 49.3 mg/mL (≈ 300 mM); in series [1] (setting [19]), 103 mg/mL (≈ 627 mM). Further, the solubility at 72 h in series [1] (setting [20]) came to 161 mg/mL (≈ 980 mM); in series [1] (setting [21]), 256 mg/mL (≈ 1560 mM); in series [1] (setting [22]), 91.1 mg/mL (≈ 555 mM); in the series “physchem” it was 203 mg/mL (≈ 1240 mM); in “physchem” (water), 0.4 mg/mL (≈ 2.44 mM). Besides, the Solubility in series [1] (solvent EG (ethylene glycol), 298 K) is 102 mg/mL (≈ 621 mM). Further, the “Increase of solubility in the water/101 mixture compared to the solubility in water” value in “physchem” (72 h) is 500 fold.
For `OCC(O)CO` [glycerol], the Viscosity in series [2] is given as 1200 cP.
With `O=C(O)/C=C/c1ccc(O)c(O)c1` [Caffeic acid], the “Increase of solubility in EGMME with respect to 101” value in series [1] is recorded as 21%. For the same molecule, the solubility at 72 h in series [1] (setting [3]) was 36.5 mg/mL (≈ 203 mM); in series [1] (setting [4]) it was 55.8 mg/mL (≈ 310 mM); in series [1] (pure ethylene glycol dimethyl ether (EGDME), 25 °C, solvent EGDME (ethylene glycol dimethyl ether), 298 K, read-out: Solubility), 32.5 mg/mL (≈ 180 mM); in series [1] (setting [5]), 5.5 mg/mL (≈ 30.5 mM); in series [1] (setting [6]), 45.8 mg/mL (≈ 254 mM); in series [1] (setting [7]), 25.2 mg/mL (≈ 140 mM). Also, the solubility at 72 h in series [1] (pure solvent 3i03i, 25 °C, solvent 3i03i, Tables S-1 to S-3, read-out: Solubility) came to 25.1 mg/mL (≈ 139 mM); in series [1] (setting [8]) it was 75.7 mg/mL (≈ 420 mM); in series [1] (setting [9]), 81.1 mg/mL (≈ 450 mM); in series [1] (setting [10]), 32.5 mg/mL (≈ 180 mM); in series [1] (pure solvent 111, 25 °C, solvent 111, Tables S-13 to S-15, read-out: Experimental solubility), 32.5 mg/mL (≈ 180 mM); in series [1] (setting [11]), 32.5 mg/mL (≈ 180 mM). Also, the solubility at 72 h in series [1] (setting [12]) worked out at 61.9 mg/mL (≈ 344 mM); in series [1] (setting [13]), 34 mg/mL (≈ 189 mM); in series [1] (setting [14]), 12 mg/mL (≈ 66.6 mM); in series [1] (setting [15]) it was 44.5 mg/mL (≈ 247 mM); in series [1] (pure solvent 303, 25 °C, solvent 303, Tables S-1 to S-3, read-out: Solubility), 17.2 mg/mL (≈ 95.5 mM); in series [1] (setting [16]), 33.5 mg/mL (≈ 186 mM). Besides, the solubility at 72 h in series [1] (setting [17]) was determined as 33.4 mg/mL (≈ 185 mM); in series [1] (setting [18]), 11.1 mg/mL (≈ 61.6 mM); in series [1] (setting [19]), 42 mg/mL (≈ 233 mM); in series [1] (setting [20]) it was 32.5 mg/mL (≈ 180 mM); in series [1] (setting [21]), 98.9 mg/mL (≈ 549 mM); in series [1] (setting [22]), 27.4 mg/mL (≈ 152 mM). Also, the solubility at 72 h in the series “physchem” was found to be 85 mg/mL (≈ 472 mM); in the series “physchem” (water) it was 0.8 mg/mL (≈ 4.44 mM). Moreover, the “Increase in the solubility compared to pure 100” value in “physchem” (72 h) came out at 20%. For the same molecule, the “Increase of solubility in the water/101 mixture compared to the solubility in water” value in the series “physchem” (72 h) amounted to 140 fold.
